Experimental data taken from US20250127905A1, “GLUTARIMIDE COMPOUND AND USE THEREOF” (MEDSHINE DISCOVERY INC., priority 2021, published 2025).

Experiments:
[1] = system: imiquimod-induced psoriasis model; experiment: Imiquimod-induced psoriasis model in mice: pathological score, ear thickness, spleen weight; format: in vivo, BALB/c mice; settings: Mean±SEM; for Spleen weight: D7; for Increased ear thickness: D7 relative to D0
Procedure: It is to evaluate the efficacy of compounds on imiquimod-induced psoriasis model in BALB/c mice.
Animals: BALB/c mice, male, 18 to 20 g; source: Zhejiang Vital River Laboratory Animal Technology Co., Ltd.
(§1) Experimental grouping and administration: After acclimatization, […] male BALB/c mice were randomly divided into 5 groups (n=6 or 9) according to body weight: normal (control, G1) group, vehicle (model, G2) group, test compound low-dose (30 mg/kg, BID, G3) group, test compound medium-dose (100 mg/kg, BID, G4) group, and test compound high-dose (300 mg/kg, BID, G5) group.
(§2) Model induction: the dorsal skin of the experimental animals was shaved (surface area=2×3 cm) before the application of imiquimod. In addition to the normal group, imiquimod cream was topically applied to the shaved back (47 mg) and left ear (15 mg) at 62 mg/mouse per day for 8 consecutive days (from D0 to D7). For administration groups (G2 to G5), the vehicle or test compound was intragastrically administered twice a day from D-1 to D6 and only once on D7. The administration volume was 10 mL/kg in each group. (Note: It is specified that the first application of imiquimod is D0; since it is administered one day earlier, the first administration is D-1).
Clinical score: Clinical disease scores for erythema, scale, and thickness were measured daily according to a grading system, and cumulative scores were calculated.
Ear thickness: The left ear thickness was measured on D0, D3, D5, and D7 for a total of 4 times, and the increased ear thickness on D7 relative to D0 was calculated.
Spleen weight: The spleen weight was measured after the animals were sacrificed on D7.
(§3) Experimental data were expressed as Mean±SEM; data were statistically analyzed using one-way ANOVA in GraphPad Prism software, and p<0.05 was considered a significant difference between the two groups.

[2] = system: interleukin 17, interleukin 6, and tumor necrosis factor α; experiment: Imiquimod-induced psoriasis model in mice: relative levels of skin inflammatory factors (fluorescence quantitative PCR); format: in vivo, BALB/c mice; settings: lesion skin D7, Mean±SEM
Procedure: as §1, §2
Inflammatory factors: The skin was taken from the lesion site after the animals were sacrificed on D7, and the relative levels of interleukin 17, interleukin 6, and tumor necrosis factor α were detected using fluorescence quantitative PCR.
as §3

O=C1CCC(c2noc3c(NC(=O)CN4CCN(C[C@H]5CC[C@H](n6cc(NC(=O)c7cnn8ccc(N9C[C@H]%10C[C@@H]9CO%10)nc78)c(C(F)F)n6)CC5)CC4)cccc23)C(=O)N1 (stereo partly drawn) [WX015]
Spleen weight ([1]; 30 mg/kg BID intragastric): 175.78 ± 13.01 mg | Increased ear thickness ([1]; 30 mg/kg BID intragastric): 208 ± 6 µm | Pathological score ([1]; 30 mg/kg BID intragastric): 20.2 ± 0.89 | Spleen weight ([1]; 100 mg/kg BID intragastric): 153.78 ± 11.67 mg | Increased ear thickness ([1]; 100 mg/kg BID intragastric): 217 ± 5.67 µm | Pathological score ([1]; 100 mg/kg BID intragastric): 20.5 ± 1.18 | Spleen weight ([1]; 300 mg/kg BID intragastric): 132.78 ± 3.94 mg | Increased ear thickness ([1]; 300 mg/kg BID intragastric): 185 ± 2.68 µm | Pathological score ([1]; 300 mg/kg BID intragastric): 19.0 ± 0.55 | Interleukin 6 relative level ([2]; 30 mg/kg BID): 8.0 ± 3.3 | Interleukin 17 relative level ([2]; 30 mg/kg BID): 102.4 ± 36.9 | Tumor necrosis factor α relative level ([2]; 30 mg/kg BID): 5.2 ± 0.7 | Interleukin 6 relative level ([2]; 100 mg/kg BID): 13.8 ± 2.3 | Interleukin 17 relative level ([2]; 100 mg/kg BID): 113.1 ± 49.4 | Tumor necrosis factor α relative level ([2]; 100 mg/kg BID): 5.2 ± 0.8 | Interleukin 6 relative level ([2]; 300 mg/kg BID): 4.7 ± 2.0 | Interleukin 17 relative level ([2]; 300 mg/kg BID): 97.3 ± 35.3 | Tumor necrosis factor α relative level ([2]; 300 mg/kg BID): 3.7 ± 0.6
